Assays:
STING receptor [1] = biological target: T1, STING receptor (Homo sapiens, UniProt Q86WV6, G230A/H232R/R293Q/R71H); assay: THP-1 Dual assay, IRF pathway (secreted Lucia luciferase reporter; IRF3 activation); assay type: cell-based; conditions: 18 h incubation
T1 construct: host or cells: THP-1 Dual cells (human monocytic THP-1 with NF-kB-SEAP and IRF-Lucia reporters)
Text: (§1) The INVIVOGEN® THP-1 Dual™ assay (catalog code: thpd-nfis) was used to evaluate the listed compounds as agonist of the STING receptor. The THP-1 Dual™ cells are derived from the human monocytic cell line THP-1 by stable integration of two inducible reporter constructs. This assay enables simultaneous study of the two main signaling pathways for STING: (a) the NF-κB pathway, by monitoring the activity of secreted embryonic alkaline phosphatase (SEAP); and (b) the Interferon regulatory factor (IRF) pathway, by assessing the activity of a secreted luciferase (Lucia™).
(§2) The procedure as set forth by the manufacturer was followed, with the following modifications: (1) plates are incubated 18 h after addition of cell suspension, and (2) the optional differentiation step is not employed. Tables 1 and 2. Biological Activity

STING receptor [2] = biological target: T1, STING receptor; assay: THP-1 Dual assay, NF-κB pathway (SEAP reporter); assay type: cell-based; conditions: 18 h incubation
Text: as §1, §2

MT4-2D cells = assay: Mouse Ductal Pancreatic Cancer Assay (subcutaneous MT4-2D tumors, intra-tumoral injection); assay type: in vivo, C57BL/6J mice; conditions: 5 ug intra-tumorally on day 15
Procedure: Mouse Ductal Pancreatic Cancer Assay
The procedure of Boj et a. […] 2.5×10^5 MT4-2D cells were injected subcutaneously on the right flank of male 6 week old C57BL/6J mice. 5 ug of the indicated STING agonist was injected intra-tumorally on day 15 in a volume of 50 ul.

[3] = day 0 post challenge (before dosing)
[4] = day 4 post challenge (before dosing)
[5] = day 6 post challenge (before dosing)
[6] = day 8 post challenge (before dosing)
[7] = day 10 post challenge (before dosing)
[8] = day 12 post challenge (before dosing)
[9] = day 14 post challenge (before dosing)
[10] = day 15 post challenge (day of dosing)

T1 sequence (Q86WV6 whole entry R71H/G230A/H232R/R293Q): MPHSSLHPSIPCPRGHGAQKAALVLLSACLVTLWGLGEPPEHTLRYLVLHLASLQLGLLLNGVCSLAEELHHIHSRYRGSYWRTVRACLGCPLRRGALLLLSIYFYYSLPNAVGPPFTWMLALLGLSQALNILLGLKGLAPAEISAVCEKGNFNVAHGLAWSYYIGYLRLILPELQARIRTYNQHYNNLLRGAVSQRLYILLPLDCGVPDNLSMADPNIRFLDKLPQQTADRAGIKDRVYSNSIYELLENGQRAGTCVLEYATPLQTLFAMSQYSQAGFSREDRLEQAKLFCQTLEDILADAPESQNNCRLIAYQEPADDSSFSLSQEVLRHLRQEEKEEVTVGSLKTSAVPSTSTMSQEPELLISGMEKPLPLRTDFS

Structure (SMILES) | Fold induction of IRF3 activation in THP-1 Dual cells (STING receptor [1]; 0.1 mg/mL STING agonist) | Fold induction of IRF3 activation in THP-1 Dual cells (STING receptor [1]; 0.5 mg/mL STING agonist) | Fold induction of IRF3 activation in THP-1 Dual cells (STING receptor [1]; 1 mg/mL STING agonist) | Fold induction of IRF3 activation in THP-1 Dual cells (STING receptor [1]; 5 mg/mL STING agonist) | Fold induction of IRF3 activation in THP-1 Dual cells (STING receptor [1]; 10 mg/mL STING agonist) | Fold induction of NF-κB activation THP-1 Dual cells (STING receptor [2]; 0.1 mg/mL STING agonist) | Fold induction of NF-κB activation THP-1 Dual cells (STING receptor [2]; 0.5 mg/mL STING agonist) | Fold induction of NF-κB activation THP-1 Dual cells (STING receptor [2]; 1 mg/mL STING agonist) | Fold induction of NF-κB activation THP-1 Dual cells (STING receptor [2]; 5 mg/mL STING agonist) | Fold induction of NF-κB activation THP-1 Dual cells (STING receptor [2]; 10 mg/mL STING agonist) | Tumor Vol (MT4-2D cells; [3]) | Tumor Vol (MT4-2D cells; [4]) | Tumor Vol (MT4-2D cells; [5]) | Tumor Vol (MT4-2D cells; [6]) | Tumor Vol (MT4-2D cells; [7]) | Tumor Vol (MT4-2D cells; [8]) | Tumor Vol (MT4-2D cells; [9]) | Tumor Vol (MT4-2D cells; [10]) | Tumor Vol (MT4-2D cells; day 16 post challenge) | Tumor Vol (MT4-2D cells; day 22 post challenge) | also measured
Nc1nc2c(ncn2[C@@H]2O[C@@H]3COP(=O)(O)O[C@H]4[C@@H](O)[C@H](n5cnc6c(=O)[nH]c(N)nc65)O[C@@H]4COP(=O)(O)O[C@H]3[C@H]2O)c(=O)[nH]1 [3′,5′-c-di-GMP, cyclic di-GMP (guanosine 5′-monophosphate), reference compound] | 1.07 fold | 1.26 fold | 1.32 fold | 2.87 fold | 5.93 fold | 0.99 fold | 0.98 fold | 0.97 fold | 1.02 fold | 1.10 fold |  |  |  |  |  |  |  |  |  |  | 
Nc1ncnc2c1ncn2[C@@H]1O[C@@H]2COP(=O)(S)O[C@@H]3[C@H](O)[C@@H](CO[P@@](=O)(S)O[C@H]2[C@H]1F)O[C@H]3n1cnc2c(N)ncnc21 (stereo partly drawn) [Example 2b, (1R,6R,8R,9R,10R,12R,15R,17R,18R)-8,17-di(6-amino-9H-purin-9-yl)-9-fluoro-18-hydroxy-3,12-dimercapto-2,4,7,11,13,16-hexaoxa-3λ^5, 12λ^5-diphosphatricyclo-[13.2.1.0^6,10]octadecane-3,12-dione] |  |  |  |  |  |  |  |  |  |  | 0.0 mm^3 | 28.4 mm^3 | 53.9 mm^3 | 66.5 mm^3 | 87.4 mm^3 | 98.3 mm^3 | 106.6 mm^3 | 114.7 mm^3 | 130.8 mm^3 | 64.9 mm^3 | Tumor Vol (MT4-2D cells; day 17 post challenge): 128.3 mm^3; Tumor Vol (MT4-2D cells; day 18 post challenge): 90.4 mm^3; Tumor Vol (MT4-2D cells; day 20 post challenge): 115.3 mm^3; Tumor Vol (MT4-2D cells; day 25 post challenge): 70.4 mm^3; Tumor Vol (MT4-2D cells; day 27 post challenge): 80.7 mm^3; Tumor Vol (MT4-2D cells; day 29 post challenge): 99.6 mm^3; Tumor Vol (MT4-2D cells; day 32 post challenge): 102.6 mm^3
Nc1ncnc2c1ncn2[C@@H]1O[C@@H]2COP(O)(=S)O[C@@H]3C(O)[C@@H](COP(O)(=S)O[C@H]2[C@H]1O)O[C@H]3n1cnc2c(N)ncnc21 (stereo partly drawn) [ML-RR-CDA, dithio-[Rp,Sp]-cyclic-[A(2′,5′)p-A(3′,5′)p], reference compound] |  |  |  |  |  |  |  |  |  |  | 0.0 mm^3 | 19.0 mm^3 | 56.3 mm^3 | 81.9 mm^3 | 84.5 mm^3 | 107.3 mm^3 | 110.9 mm^3 | 125.6 mm^3 | 193.2 mm^3 | 147.2 mm^3 | Tumor Vol (MT4-2D cells; day 25 post challenge): 154.0 mm^3; Tumor Vol (MT4-2D cells; day 27 post challenge): 241.4 mm^3; Tumor Vol (MT4-2D cells; day 29 post challenge): 198.5 mm^3; Tumor Vol (MT4-2D cells; day 32 post challenge): 250.1 mm^3
Nc1ncnc2c1ccn2[C@@H]1O[C@@H]2CO[P@@](=O)(S)O[C@@H]3[C@@H](O)[C@H](n4cnc5c(N)ncnc54)O[C@@H]3COP(=O)(S)O[C@@H]1[C@@H]2O (stereo partly drawn) [Example 3b, (1R,6R,8R,9R,10R,12R,15R,17R,18R)-17-(4-amino-7H-pyrrolo[2,3-d]pyrimidin-7-yl)-8-(6-amino-9H-purin-9-yl)-9,18-dihydroxy-3,12-dimercapto-2,4,7,11,13,16-hexaoxa-3λ^5, 12λ^5-diphosphatricyclo[13.2.1.0^6,10]octadecane-3,12-dione] | 1.38 fold | 1.48 fold | 1.56 fold | 5.05 fold | 6.70 fold | 0.98 fold | 0.99 fold | 1.00 fold | 1.08 fold | 1.14 fold |  |  |  |  |  |  |  |  |  |  | 
Nc1ncnc2c1ncn2[C@@H]1O[C@@H]2COP(=O)(S)O[C@@H]3[C@H](O)[C@@H](CO[P@@](=O)(S)O[C@H]2[C@H]1F)O[C@H]3n1cnc2c(N)ncnc21 (stereo partly drawn) [Example 2a, (1R,6R,8R,9R,10R,12R,15R,17R,18R)-8,17-di(6-amino-9H-purin-9-yl)-9-fluoro-18-hydroxy-3,12-dimercapto-2,4,7,11,13,16-hexaoxa-3λ^5, 12λ^5-diphosphatricyclo-[13.2.1.0^6,10]octadecane-3,12-dione] |  |  |  |  |  |  |  |  |  |  | 0.0 mm^3 | 29.2 mm^3 | 64.3 mm^3 | 84.3 mm^3 | 103.3 mm^3 | 125.9 mm^3 | 113.8 mm^3 | 132.1 mm^3 | 134.0 mm^3 | 91.6 mm^3 | Tumor Vol (MT4-2D cells; day 17 post challenge): 122.7 mm^3; Tumor Vol (MT4-2D cells; day 18 post challenge): 82.8 mm^3; Tumor Vol (MT4-2D cells; day 20 post challenge): 72.8 mm^3; Tumor Vol (MT4-2D cells; day 25 post challenge): 124.0 mm^3; Tumor Vol (MT4-2D cells; day 27 post challenge): 142.0 mm^3; Tumor Vol (MT4-2D cells; day 29 post challenge): 163.1 mm^3; Tumor Vol (MT4-2D cells; day 32 post challenge): 217.7 mm^3
Nc1ncnc2c1ccn2[C@@H]1O[C@@H]2COP(=O)(S)O[C@@H]3[C@H](O)[C@@H](CO[P@@](=O)(S)O[C@@H]2[C@H]1O)O[C@H]3n1cnc2c(N)ncnc21 (single isomer, unassigned) [Example 1b] | 0.99 fold | 1.88 fold | 3.52 fold | 25.91 fold | 87.63 fold | 0.97 fold | 0.99 fold | 1.01 fold | 1.29 fold | 3.71 fold |  |  |  |  |  |  |  |  |  |  | 
Nc1ncnc2c1ccn2[C@@H]1O[C@@H]2COP(=O)(S)O[C@@H]3[C@H](O)[C@@H](CO[P@@](=O)(S)O[C@@H]2[C@H]1O)O[C@H]3n1cnc2c(N)ncnc21 (single isomer, unassigned) [Example 1a] |  |  | 9.77 fold | 112.64 fold |  |  |  |  | 2.77 fold |  |  |  |  |  |  |  |  |  |  |  | 
